This passage reports half-life and Activity results from ChEMBL document CHEMBL3734680, “Synthesis and relationship of stability and biological activity of new DSS and TMP conjugates” (Medchemcomm, 2015).

Data set [1] relates to carboxyesterase. The data set can be described thus: Half life of compound assessed as carboxyesterase (unknown origin)-mediated drug degradation at 0.655 x 10^3 uM by HPLC analysis. The format is ADME. Conditions: human.
Data set [2] concerns H9c2. The data set can be described thus: Cardioprotective activity against t-BHP-induced injury in rat H9c2 cells preincubated for 1 hr followed by t-BHP challenge for 12 hrs by MTT assay. The format is functional, cell-based.
The test system of data set [3] is H9c2. The experiment in a line: Cardioprotective activity against doxorubicin-induced injury in rat H9c2 cells preincubated for 1 hr followed by doxorubicin challenge for 24 hrs by MTT assay. The format is functional, cell-based.
The test system of data set [4] is H9c2. The experiment in a line: Induction of mitochondrial biogenesis in rat H9c2 cells assessed as upregulation of Tfam mRNA expression at 30 uM after 24 hrs by RT-PCR analysis relative to control. The class given is functional, cell-based.
The test system of data set [5] is H9c2. The data set can be described thus: Induction of mitochondrial biogenesis in rat H9c2 cells assessed as mitochondrial DNA replication after 24 hrs by Mitotracker/DAPI/FITC-staining based immunofluorescence analysis relative to control. The format is functional, cell-based.
Data set [6] has as its system H9c2. The data set can be described thus: Cardioprotective activity against doxorubicin-induced injury in rat H9c2 cells assessed as inhibition of LDH leakage preincubated for 1 hr followed by doxorubicin challenge for 24 hrs. The class given is functional, cell-based.
In data set [7] the test system is H9c2. The data set can be described thus: Induction of mitochondrial biogenesis in rat H9c2 cells assessed as upregulation of PGC-1beta mRNA expression at 30 uM after 24 hrs by RT-PCR analysis relative to control. The format is functional, cell-based.

The source made the active and inactive calls. The rule behind the calls is not given here.

`C=CCC(OC(=O)[C@@H](Cc1ccc(OC(C)=O)c(OC(C)=O)c1)OC(C)=O)c1nc(C)c(C)nc1C` (stereo partly drawn): the half-life in data set [1] stood at 11.3 min. In addition, in data set [2], the outcome was Active.
As for `CC(=O)Oc1ccc(C[C@@H](OC(C)=O)C(=O)OC(C)c2nc(C)c(C)nc2C)cc1OC(C)=O` (stereo partly drawn), in data set [1], the half-life was found to be 10.6 min. Also, the result in data set [2] was Active.
With `CC(=O)Oc1ccc(CC(OC(C)=O)C(=O)OCc2nc(C)c(C)nc2C)cc1OC(C)=O` (stereo not drawn), in data set [1], the half-life was found to be 10.3 min. For the same molecule, in data set [2], the outcome was Active.
As to `C=CCC(CC=C)(OC(=O)[C@@H](Cc1ccc(OC(C)=O)c(OC(C)=O)c1)OC(C)=O)c1nc(C)c(C)nc1C`, the half-life in data set [1] was found to be 20.5 min. The result in data set [2], in data set [4], in data set [5] and in data set [7] was Active. Further, the Activity result in data set [3] and in data set [6] was “Dose-dependent effect” in each case.
